# Results reported in US20210108247A1, “CHEMOENZYMATIC SYNTHESIS OF TREHALOSE ANALOGUES” (Central Michigan University, priority 2014, published 2021).
# Legend:
# Assay type in all cases: cell-based
# M. smegmatis wild type [1] = assay: Uptake of fluoro trehalose, GC-MS of cytosolic extracts; settings: 100 μM, 1 h, 37° C.
# Description: Cultures of M. smegmatis wild type, ΔsugC mutant, or ΔsugC::sugC complement were generated by inoculating a single colony from a freshly streaked agar plate (with appropriate antibiotic, if needed) into 3 mL Middlebrook 7H9 liquid medium supplemented with ADC (albumin, dextrose, and catalase), 0.5% glycerol, and 0.05% Tween-80 in a culture tube. Starter cultures were incubated at 37° C. with shaking until reaching log phase. Cells were then cultured at 37° C. in the presence or absence of 2-, 3-, 4-, or 6-fluoro trehalose (100 μM) in 7H9 liquid medium for 1 h, then centrifuged and washed (5000 rpm for 5 min) three times in ultrapure water. The washed cells were resuspended in ultrapure water and boiled for 4 h, then centrifuged. The supernatant was collected and dried on a speedvac to yield water-soluble cytosolic metabolites (e.g., trehalose and fluoro trehaloses, if present), which were subsequently trimethylsilyl (TMS)-derivatized using N-Methyl-N-(trimethylsilyl) trifluoroacetamide (MSTFA) in pyridine and analyzed by gas chromatography-mass spectrometry (GC-MS).
# [2] = tested on: M. smegmatis ΔsugC mutant; assay: One-pot metabolic labeling and fluorescence imaging (CuAAC with alkyne fluorophore); settings: ΔsugC mutant missing the trehalose transporter; 25 μM, 4 h
# Description: One-Pot Metabolic Labeling and Imaging of M. smegmatis: Cultures of M. smegmatis wild type, ΔsugC mutant, or ΔsugC::sugC complement were generated by inoculating a single colony from a freshly streaked agar plate (with appropriate antibiotic, if needed) into 3 mL Middlebrook 7H9 liquid medium supplemented with ADC (albumin, dextrose, and catalase), 0.5% glycerol, and 0.05% Tween-80 in a culture tube. Starter cultures were incubated at 37° C. with shaking until reaching log phase. Meanwhile, using the procedure described above, a 50 μL TreT reaction employing 6-GlcAz (10 mM) as the substrate was carried out to synthesize 6-TreAz (+TreT sample). A control reaction lacking TreT was run in parallel (−TreT control). […] Given the observed quantitative conversion for this reaction (FIG. 1B, Entry 16), a 6-TreAz concentration of 10 mM was assumed in the +TreT sample. […] Fluorescence imaging was performed using a GFP LED light cube (maximum excitation/emission=470/510 nm). […]
# The same experiments were performed in M. smegmatis ΔsugC, a mutant missing the trehalose transporter required for 6-TreAz uptake and labeling, as well as its complement, M. smegmatis ΔsugC::sugC. Fluorescence was abolished in the ΔsugC mutant and restored in the complement, confirming that 6-TreAz labeling proceeded via the trehalose transporter pathway.
# M. smegmatis wild type [3] = assay: as above; settings: +TreT reaction mixture, 25 μM azido sugar, 4 h, 37° C.
# [4] = tested on: M. smegmatis ΔsugC::sugC complement; assay: as above; settings: 25 μM, 4 h
# Description: One-Pot Metabolic Labeling and Imaging of M. smegmatis: Cultures of M. smegmatis wild type, ΔsugC mutant, or ΔsugC::sugC complement were generated by inoculating a single colony from a freshly streaked agar plate (with appropriate antibiotic, if needed) into 3 mL Middlebrook 7H9 liquid medium supplemented with ADC (albumin, dextrose, and catalase), 0.5% glycerol, and 0.05% Tween-80 in a culture tube. Starter cultures were incubated at 37° C. with shaking until reaching log phase. Meanwhile, using the procedure described above, a 50 μL TreT reaction employing 6-GlcAz (10 mM) as the substrate was carried out to synthesize 6-TreAz (+TreT sample). A control reaction lacking TreT was run in parallel (−TreT control). After incubation at 70° C. for 1 h, the reactions were stopped by placing on ice. Given the observed quantitative conversion for this reaction (FIG. 1B, Entry 16), a 6-TreAz concentration of 10 mM was assumed in the +TreT sample. For the −TreT control, a 6-GcAz concentration of 10 mM was assumed. The aqueous reaction mixtures were directly diluted into M. smegmatis wild type, ΔsugC mutant, or ΔsugC::sugC complement growing in 7H9 liquid medium to a final azido sugar concentration of 25 μM and a culture density of OD600=0.15. […] Fluorescence imaging was performed using a GFP LED light cube (maximum excitation/emission=470/510 nm). […]
SMILES,fluoro trehalose derivative in cytosolic extracts (uptake) (M. smegmatis wild type [1]),fluorescence labeling of bacteria (fluorescence microscopy) [2],fluorescence labeling of bacteria (fluorescence microscopy) (M. smegmatis wild type [3]),fluorescence labeling of bacteria (fluorescence microscopy) [4]
"OC[C@H]1O[C@H](O[C@H]2O[C@H](CO)[C@@H](O)[C@H](O)[C@H]2F)[C@H](O)[C@@H](O)[C@@H]1O [2-fluoro trehalose, 2-Deoxy-2-fluoro-α,α-D-trehalose]",observed in cytosolic extracts,,,
"OC[C@H]1O[C@H](O[C@H]2O[C@H](CO)[C@@H](O)[C@H](F)[C@H]2O)[C@H](O)[C@@H](O)[C@@H]1O [3-fluoro trehalose, 3-Deoxy-3-fluoro-α,α-D-trehalose]",observed in cytosolic extracts,,,
"[N-]=[N+]=NC[C@H]1O[C@H](O[C@H]2O[C@H](CO)[C@@H](O)[C@H](O)[C@H]2O)[C@H](O)[C@@H](O)[C@@H]1O [6-TreAz, 6-Azido-6-Deoxy-α,α-D-trehalose]",,abolished,strong labeling,restored
OC[C@H]1O[C@H](O[C@H]2O[C@H](CF)[C@@H](O)[C@H](O)[C@H]2O)[C@H](O)[C@@H](O)[C@@H]1O [6-fluoro trehalose],observed in cytosolic extracts,,,
